Measured values published in article PMC5711939, “The rumen microbiome: an underexplored resource for novel antimicrobial discovery” (NPJ Biofilms and Microbiomes, 2017).
Where two headings read alike, the source gives them in different places. Ends that are not written are not given here.

Key:
USA300 MRSA (BAA-1717) = test: Murine model of MRSA wound infection; type: in vivo, Staphylococcus aureus; conditions: ICR mice, topical 2% once daily for 3 days, five mice/group
Description: The efficacy of Lynronne-1, Lynronne-2 and Lynronne-3 for treating a wound infection caused by USA300 community-associated methicillin resistant S. aureus (MRSA, strain BAA-1717) was evaluated using a murine wound model with ICR mice.[24] A sharp punch (ID 12 mm) was used to create excisional skin wounds in groups of five female ICR mice (5–6 weeks old). The mice were inoculated topically on the wound area (5 µl per wound) with 1.05 × 10^5 CFU/mouse of strain BAA-1717 suspended in 5 µl PBS. Peptides (2 or 10% w/v) in PBS (pH 7.4), control (PBS), and mupirocin 2% (Dermasafe® ointment) were topically applied (20 µl/mouse) directly to wounds 2 h post infection and once daily thereafter for three consecutive days. Test animals were sacrificed and the wound tissue was excised for enumeration of bacteria cells (CFU/wound). A two-log reduction in the bacterial count (≥99% reduction) relative to the control group indicates significant activity. Statistical significance (P < 0.05) was performed with one-way analysis of variance (ANOVA) followed by use of the Dunnett’s method.

in vitro = conditions: 25% serum
Description: The stability of Lynronne-1, Lynronne-2 and Lynronne-3 in the presence of serum was investigated by monitoring the concentrations of the remaining soluble peptides by reverse phase high-performance liquid chromatography (RP-HPLC), as described previously by Nguyen and colleagues.[26] Degradation of Lynronne-1, Lynronne-2 and Lynronne-3 in the presence of trypsin was adapted from a previously described method.[46] Briefly, trypsin (5 µl of 0.5 ng/ml) and 37.5 µl trypsin activation buffer (50 mM Tris, 2 mM CaCl2, pH 7.8-8) was added to 7.5 µl of 5 mg/ml Lynronne-1, Lynronne-2 and Lynronne-3 and incubated at 37 °C for different time points (0, 1, 3, and 24 h). An aliquot from each reaction mixture at 0 h was prepared to allow matrix-assisted laser desorption/ionization time-of-flight (MALDI-TOF) mass spectrometric verification of the synthetic peptides prior to incubation. Trypsin action buffer (5 µl) and peptides without trypsin was used as negative control. After the various incubation times, the reaction mixtures were acidified by addition of an equal volume (50 µl) of 10% (v/v) trifluroacetic acid (TFA) to stop further enzyme activity. Lynronne-1, Lynronne-2 and Lynronne-3 degradation products were evaporated to dryness and reconstituted in acetonitrile/water/TFA (40/59.5/0.5%, v/v/v). Samples (1 µl) were carefully placed onto a stainless steel (MALDI) target, covered with 1 µl of matrix (53 mM a-cyano-4-hydroxycinnamic acid in acetonitrile/water/TFA, 70/29.97/0.03%, v/v/v) solution before analysis by mass spectrometry.

P. aeruginosa H1001 = test: SPOT peptide library screen (luminescence); type: cell-based, Pseudomonas aeruginosa; parameters: unit not given here; conditions: 75% reduction of luminescence vs untreated controls; active IC75≤0.25, semi-active 0.25<IC75≤0.50, inactive IC75>0.5
Source text: (§1) The peptides in the created peptide library were synthesized based on the SPOT technique and pure peptides (≥95% purity) were synthesized on resin using solid phase Fmoc peptide chemistry.[16] The 135 peptides in the peptide library were screened for antimicrobial activity using both luminescent (Pseudomonas aeruginosa strain H1001)[34] and non-luminescent (epidemic methicillin resistant S. aureus EMRSA-15, Sal. typhimurium and E. coli K12) bacterial strains. Activity against non-luminescent bacteria strains was assessed by fluorescence readings (excitation/emission spectra of 560/590 nm) after the addition of resazurin dye (100 µm final concentration). The results from the screen were analysed using the MATLAB extension Gait-CAD as previously described.[35] Concentration values with a 75% reduction of luminescence or fluorescence (IC75) in relation to untreated controls were computed.

E. coli K12 = test: MIC, broth microdilution; type: cell-based, Escherichia coli; conditions: strain K12; cation adjusted MHB, 18–24 h
Description: (§2) Peptides dissolved in sterile distilled water and comparator antibiotics dissolved in the appropriate solvents[38] were added to sterile U-bottom polypropylene 96-well microplates at desired concentrations.

HUVEC and HepG2 cells = conditions: for total growth inhibition (TGI): HUVEC and HepG2 cells (cell line not given)
Description: Cytotoxic activity of the identified peptides was determined using HUVEC and HEPG2 cells as described previously.[41],[42] […] Significant responses were defined when observed cell growth was ≤50% and tube length was ≤70% using the proliferation and tube formation assays respectively. Permeabilization of eukaryotic membrane by Lynronne-1, Lynronne-2 and Lynronne-3 was also investigated using HepG2 cells as described previously.[43]

EMRSA-15 = test: SPOT peptide library screen (resazurin fluorescence); type: cell-based, Staphylococcus aureus; parameters: unit not given here; conditions: 75% reduction of fluorescence vs untreated controls; active IC75≤0.25, semi-active 0.25<IC75≤0.50, inactive IC75>0.5
Source text: as §1

C. coli = test system: C. coli
Description: as §2

A. baumanii = test: microbe, parasite or virus in culture
Description: as §2

K. pneumoniae = test: microbe, parasite or virus in culture; conditions: cation adjusted MHB, 18–24 h
Description: as §2

| Substance | Colony count relative to the control group treated with PBS (USA300 MRSA (BAA-1717)) | remaining at 2 h (in vitro) | remaining at 6 h (in vitro) | IC75 values indicating activity classes, P. aeruginosa H1001 (P. aeruginosa H1001) | MIC (E. coli K12) | Cytotoxic activity (HUVEC and HepG2 cells) | IC75 values indicating activity classes, EMRSA-15 (EMRSA-15) | MIC (C. coli) | MIC (A. baumanii) | MIC (K. pneumoniae; strain ATCC 700603, SHV-18) | MIC (K. pneumoniae; strain NCTC 13442, OXA-48) | total growth inhibition (TGI) (HUVEC and HepG2 cells) | MIC (A. baumanii; strain 1560739339, OXA-23, cation adjusted MHB, 18–24 h) | MIC (K. pneumoniae; strain Q14-0095, KPC) |
| --- | --- | --- | --- | --- | --- | --- | --- | --- | --- | --- | --- | --- | --- | --- |
| HLRRINKLLTRIGLYRHAFG-NH2 [Lynronne-2] | No significant decreases | ≥ 60% | 42% | 0.14 | 64 µg/mL | no cytotoxic activity | 0.29 | >128 µg/mL |  |  |  |  |  |  |
| LPRRNRWSKIWKKVVTVFS-NH2 [Lynronne-1] | significant decrease | 48% | 15% | 0.14 | 32 µg/mL |  | 0.38 | 64 µg/mL | 4 µg/mL | 16 µg/mL | 16 µg/mL | 67.1 µg/mL |  |  |
| NRFTARFRRTPWRLCLQFRQ-NH2 [Lynronne-3] | No significant decreases | ≥ 88% | 34% | 0.54 | 64 µg/mL |  | 0.65 | 128 µg/mL |  | 32 µg/mL | 32 µg/mL | 61.2 µg/mL | 32 µg/mL | 32 µg/mL |
